ChEMBL document CHEMBL1146232, “Discovery of N-{(1S,2S)-2-(3-cyanophenyl)- 3-[4-(2-[18F]fluoroethoxy)phenyl]-1-methylpropyl}- 2-methyl-2-[(5-methylpyridin-2-yl)oxy]propanamide, a cannabinoid-1 receptor positron emission tomography tracer suitable for clinical use” (J Med Chem, 2007)

Assays:
[1] = biological target: Cannabinoid receptor 1 (Homo sapiens, UniProt P21554); assay: Displacement of [3H]CP-55940 from human recombinant CB1R expressed in CHO cells; assay type: cell-based
[2] = Distribution coefficient, log D at pH 7.3; assay type: physicochemical; conditions: octanol/water
[3] = Ratio of drug level in brain to plasma in Sprague-Dawley rat at 1 mg/kg, iv after 15 mins; assay type: ADME, organism-based; set-up: dose 1 mg/kg, route intravenous; conditions: brain and plasma
[4] = Clearance in Sprague-Dawley rat at 1 mg/kg, iv; assay type: ADME, organism-based; set-up: dose 1 mg/kg, route intravenous; conditions: in vivo
[5] = Half life in Sprague-Dawley rat at 1 mg/kg, iv; assay type: ADME, organism-based; set-up: dose 1 mg/kg, route intravenous; conditions: in vivo
[6] = biological target: Cannabinoid receptor 2 (Homo sapiens, UniProt P34972); assay: Agonist activity at human CB2R; assay type: functional
Cannabinoid receptor 2, sequence (P34972 whole entry): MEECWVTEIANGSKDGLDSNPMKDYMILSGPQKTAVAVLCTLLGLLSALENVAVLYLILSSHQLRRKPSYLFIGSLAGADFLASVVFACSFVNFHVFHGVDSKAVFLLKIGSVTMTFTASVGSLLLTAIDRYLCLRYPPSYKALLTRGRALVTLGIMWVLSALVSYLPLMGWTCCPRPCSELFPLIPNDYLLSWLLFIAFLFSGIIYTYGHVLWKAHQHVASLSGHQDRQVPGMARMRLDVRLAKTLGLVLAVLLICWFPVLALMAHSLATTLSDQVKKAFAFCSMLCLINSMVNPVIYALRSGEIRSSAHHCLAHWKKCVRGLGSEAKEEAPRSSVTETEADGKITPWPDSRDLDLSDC

Cannabinoid receptor 1, sequence (P21554 whole entry): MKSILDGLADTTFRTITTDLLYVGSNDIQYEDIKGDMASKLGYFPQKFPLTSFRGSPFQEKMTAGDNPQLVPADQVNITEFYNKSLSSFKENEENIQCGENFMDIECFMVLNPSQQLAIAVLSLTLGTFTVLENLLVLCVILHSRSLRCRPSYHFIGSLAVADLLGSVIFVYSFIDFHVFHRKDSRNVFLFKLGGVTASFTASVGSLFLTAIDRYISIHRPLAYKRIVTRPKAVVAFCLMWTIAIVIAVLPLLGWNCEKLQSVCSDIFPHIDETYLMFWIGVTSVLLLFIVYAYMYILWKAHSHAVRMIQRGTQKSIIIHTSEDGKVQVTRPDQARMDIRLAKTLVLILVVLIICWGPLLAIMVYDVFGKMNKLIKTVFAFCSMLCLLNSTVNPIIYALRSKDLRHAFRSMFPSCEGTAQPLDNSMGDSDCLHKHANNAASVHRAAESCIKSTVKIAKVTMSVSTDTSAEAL

SMILES | IC50 [1] [pM] | logD [2] | Kp at 0.25 h [3] | clearance [4] [mL/min/kg] | half-life [5] [h] | IC50 [6] [pM]
C[C@H](NC(=O)C(C)(C)Oc1ccc(C(F)(F)F)cn1)[C@@H](Cc1ccc(OCCF)cc1)c1cccc(C#N)c1 | 900 | 4.4 | – | – | – | –
Cc1ccnc(OC(C)(C)C(=O)N[C@@H](C)[C@@H](Cc2ccc(OCCF)cc2)c2cccc(C#N)c2)c1 | 470 | 4.1 | – | – | – | –
Cc1ccc(OC(C)(C)C(=O)N[C@@H](C)[C@@H](Cc2ccc(OCCF)cc2)c2cccc(C#N)c2)nc1 | 700 | 4 | 0.5 | 81 | 1.4 | 44000
C[C@H](NC(=O)C(C)(C)Oc1cc(C(F)(F)F)ncn1)[C@@H](Cc1ccc(OCCF)cc1)c1cccc(C#N)c1 | 1800 | 3.9 | – | – | – | –
Cc1ccc(OC(C)(C)C(=O)N[C@@H](C)[C@@H](Cc2ccc(OCC[18F])cc2)c2cccc(C#N)c2)nc1 | 730 | 4 | – | – | – | –
COc1ccc(C[C@@H](c2cc(F)cc(C#N)c2)[C@H](C)NC(=O)C(C)(C)Oc2ccc(C(F)(F)F)cn2)cc1 | 900 | 4.8 | – | – | – | –
C[C@H](NC(=O)C(C)(C)Oc1ccc(C(F)(F)F)cn1)[C@@H](Cc1ccc(OCF)cc1)c1cc(F)cc(C#N)c1 | 2000 | 4.7 | – | – | – | –
C[C@H](NC(=O)C(C)(C)Oc1cc(C(F)(F)F)ccn1)[C@@H](Cc1ccc(OCCF)cc1)c1cccc(C#N)c1 | 770 | 4.6 | – | – | – | –

Second part, led by results:

IC50 [1] [pM] | logD [2] | SMILES | Kp at 0.25 h [3] | clearance [4] [mL/min/kg] | half-life [5] [h] | IC50 [6] [pM]
800 | 4.2 | C[C@H](NC(=O)C(C)(C)Oc1ccc(Cl)cn1)[C@@H](Cc1ccc(OCCF)cc1)c1cccc(C#N)c1 | – | – | – | –
1300 | 3.7 | C[C@H](NC(=O)C(C)(C)Oc1ccccn1)[C@@H](Cc1ccc(OCCF)cc1)c1cccc(C#N)c1 | – | – | – | –
900 | 4.6 | C[C@H](NC(=O)C(C)(C)Oc1ccc(C(F)(F)F)cn1)[C@@H](Cc1ccc(OCCF)cc1)c1cc(F)cc(C#N)c1 | – | – | – | –
1800 | 3.3 | C[C@H](NC(=O)C(C)(C)Oc1ccc(C#N)cn1)[C@@H](Cc1ccc(OCCF)cc1)c1cccc(C#N)c1 | – | – | – | –
– | 5.2 | C[C@H](NC(=O)C(C)(C)Oc1ccc(C(F)(F)F)cn1)[C@@H](Cc1ccc(Cl)cc1)c1cccc(C#N)c1 [TARANABANT] | – | – | – | –
